{
  "source": "patent US20150098997A1",
  "about": "“Methods and Compositions for Treating Attention Deficit Hyperactivity Disorder, Anxiety and Insomnia Using Dexmedetomidine Transdermal Compositions” (Teikoku Pharma USA, Inc., priority 2013, published 2015)",
  "assay": "Solubility of dexmedetomidine in adhesives and solubility enhancers",
  "format": "physicochemical",
  "data": [
    {"smiles": "Cc1cccc([C@H](C)c2cnc[nH]2)c1C", "note": "[dexmedetomidine, Dexmedetomidine]", "values": [
      {"measurement": "solubility of dexmedetomidine", "setting": "in Duro-Tak 87-2979 (acid/hydroxyl functionalized acrylate adhesive)", "value": "less than 2%"},
      {"measurement": "solubility of dexmedetomidine", "setting": "in Duro-Tak 387/87-2353 (acid functionalized acrylate adhesive)", "value": "10-15%"},
      {"measurement": "solubility of dexmedetomidine", "setting": "in hydroxyl functionalized acrylate polymer", "value": "less than 1%"},
      {"measurement": "solubility of dexmedetomidine", "setting": "in lauryl lactate", "value": "5 to 10", "unit": "%"},
      {"measurement": "solubility of dexmedetomidine", "setting": "in levulinic acid", "value": "~60", "unit": "%"},
      {"measurement": "solubility of dexmedetomidine", "setting": "in oleic acid", "value": "~40", "unit": "%"},
      {"measurement": "solubility of dexmedetomidine", "setting": "in propylene glycolmonolaurate", "value": "5 to 10", "unit": "%"}
    ]}
  ]
}
